Data taken from US20100093716A1, “THERAPEUTIC METHODS USING WRN BINDING MOLECULES” (TRUSTEES OF BOSTON UNIVERSITY AND PRESIDENT AND FELLOWS OF …, priority 2006, published 2010).

Assays:
[1] = tested on: MM-AN human melanoma cells; test: apoptosis of MM-AN melanoma cells by FACS analysis (propidium iodide); type: cell-based; conditions: 10 μM, 40 μM and 80 μM
Method: Cultures of MM-AN human melanoma cells were treated with diluent (water or DMSO) alone, a T-oligo (16mer: 5′ GTTAGGGTTAGGGTTA 3′; SEQ ID NO: 2), SPOX-1, or SPOX-2 for 96 hours, then collected and processed for FACS analysis. One concentration of the T-oligo (20 μM) and three concentrations of each SPOX compound (10 μM, 40 μM and 80 μM) were tested. Each bar is the mean of triplicate dishes +/− standard error of the mean (SEM). FACS profiles are depicted at the top of the figure.
Cultures of MM-AN human melanoma cells were treated with diluent (water or DMSO) alone, 16mer T-oligo (SEQ ID NO: 2), SPOX-337, SPOX-338 or SPOX-343 for 72 hours, then collected and processed for FACS analysis. One concentration of the T-oligo (20 μM) and three concentrations of each SPOX compound (10 μM, 40 μM and 80 μM) were tested.

MCF-7 cells = test: growth of MCF-7 breast cancer cells; type: cell-based, human; conditions: for growth of MCF-7 cells: 10 μM; for growth of MCF-7 cells / growth of MCF-7 cells at higher concentrations: 40 μM and 80 μM; for growth of MCF-7 cells at highest concentration: 80 μM, 3 days after plating; for growth arrest of malignant cells: summary statement; for growth of MCF-7 cells at higher concentrations: 8 days after plating
Method: The effect of SPOX compounds on growth and apoptosis of human breast cancer cells was tested using cultures of MCF-7 cells. The effect on cell growth was tested by plating 20,000 cells per 35 mm dish. Medium containing either diluent alone (DMSO), SPOX-1 or SPOX-2 (10 μM, 40 μM and 80 μM) was introduced at 96 hours and growth was determined 8 days after plating.
The effect of SPOX compounds on growth of human breast cancer cells was tested using cultures of MCF-7 cells. The effect on cell growth was tested by plating 20,000 cells per 35 mm dish. Medium containing either diluent (water or DMSO) alone, SPOX-337, SPOX-388, SPOX-343 (10 μM, 40 μM and 80 μM) or 16mer T-oligo (SEQ ID NO: 2) was introduced at 96 hours and growth was determined 3 days after plating.

[2] = tested on: WRN− U20S human osteosarcoma cells; test: apoptosis of WRN− U20S cells by FACS analysis; type: cell-based; conditions: 96 hours
Method: (§1) Cultures of WRN+ and WRN− U20S human osteosarcoma cells were treated with either diluent (water or DMSO) alone, 16mer T-oligo (SEQ ID NO: 2) or SPOX-1 for 96 hours, then collected and processed for FACS analysis. One concentration of the 16mer T-oligo was tested, 20 μM, and three concentrations of SPOX-1 were tested, 10 μM, 40 μM and 80 μM.

human fibroblasts = test: growth of newborn fibroblast cells; type: cell-based; conditions: 40 μM; growth determined 2 and 4 days after plating
Method: The effect of SPOX compounds on growth of human fibroblasts was tested using cultures of newborn fibroblast cells. Briefly, 20,000 cells were plated per 35 mm dish. Medium containing either diluent (dimethyl sulfoxide (DMSO)) alone, SPOX-1 (40 μM) SPOX-2 (40 μM) or 11mer T-oligo (SEQ ID NO:1) was introduced at 96 hours and growth was determined 2 and 4 days after plating.

[3] = tested on: MM-AN human melanoma cells; test: growth of MM-AN melanoma cells; type: cell-based; conditions: 40 μM; 2, 3 and 4 days after treatment
Method: (§2) The effect of SPOX compounds on growth of human melanoma cells was tested using cultures of MM-AN cells. Briefly, 20,000 MM-AN cells were plated per 35 mm dish. Medium containing either diluent (DMSO) alone, SPOX-1 or SPOX-2 (40 μM) was introduced at 96 hours and growth was determined 2, 3 and 4 days after treatment.

[4] = tested on: ataxia telanglectasia mutated (ATM) kinase; test: phosphorylation of ATM at serine 1981 in MM-AN cells, Western blot; type: cell-based, human; conditions: 40 μM, 48 hours
Method: Phosphorylated ATM in turn phosphorylates, and thus activates, p53. MM-AN cells were treated with diluent (medium or DMSO) alone, 40 μM of […] or 40 μM of SPOX-2 for 48 hours then collected and analyzed by Western blot using an antibody against ATM phosphoserine 1981.

Histone H2AX (γH2AX) [5] = test: γH2AX formation in MCF-7 cells, western blot; type: cell-based, human; conditions: compared with 16mer T-oligo
Method: (§3) Phosphorylation of Histone H2AX (forming γH2AX) was assessed as a marker for DNA damage. Apoptosis was measured by western blot analysis to show cleavage of poly(ADP-ribose) polymerase (PARP). PARP is a substrate for caspase-3, an enzyme that mediates apoptosis, and thus cleavage of PARP by caspase-3 is indicative of ongoing apoptosis. […] Thus, both SPOX compounds induce apoptosis and formation of γH2AX, as a marker of DNA damage-like responses, in the MCF-7 breast cancer cell line.

[6] = tested on: poly(ADP-ribose) polymerase (PARP); test: PARP cleavage in MCF-7 cells, western blot; type: cell-based, human; conditions: compared with TNF-α
Method: as §3

human skin explants = test: melanogenesis in human skin explants (Fontana Masson stain, image analysis); type: cell-based; conditions: 80 uM; 24, 48 and 72 hours; positive control pTT 100 uM
Method: Normal facial skin removed from a person at the time of facelift was carefully cut into fragments approximately 5×5 mm. The fragments were placed in tissue culture dishes in standard culture medium, under conditions known to maintain the fragments in good condition, responsive to physiologic stimuli, for at least one week (Arad et al, FASEB J. Jul. 28, 2006. [Epub]). Fragments were arranged with at least 3 per 35 mm dish and after 48 hours, one dish each was provided with fresh medium containing diluent (DMSO) alone (Dil) or SPOX-1 or SPOX-2 each at 80 uM or thymidine dinucleotide (pTT) at 100 uM as a positive control. […] The 72 hour diluent (Dil) control sample was judged to be bacterially contaminated, affecting both the overall histology and the apparent melanin content, which based on earlier experiments would be expected to be the same as at 24 and 48 hours. All other samples were believed to be healthy and to accurately represent the response to treatment.

survivin = survivin expression in H460 lung cancer cells; type: cell-based, human; conditions: for survivin expression at 80 μM: 24 hours; for survivin expression / survivin expression at 40 μM: 2 days, 40 μM; for survivin expression: 20 μM
Method: The ability of the SPOX compounds to inhibit expression of survivin, a member of the Inhibitor of Apoptosis Protein (IAP) family, was determined by treating H460 human lung cancer cells for two days with diluent (DMSO) alone, SPOX-1 (20 μM, 40 μM), SPOX-2 (20 μM, 40 μM) and T-oligo (16mer: 5′ GGTTGGTTGGTTGGTT 3′; SEQ ID NO: 3) (20 μM, 40 μM) or for 24 hours with SPOX-1 (80 μM) or SPOX-2 (80 μM). Following treatment, cells were collected, counted, and assayed for survivin expression. The results are depicted in FIG. 15.

[7] = tested on: H460 human lung cancer cells; test: growth of H460 lung cancer cells; type: cell-based; conditions: 40 μM; 1, 2, 3 and 4 days after plating
Method: as §2, with “lung cancer” for “melanoma”, “H460” for “MM-AN”, “20,000H460” for “20,000 MM-AN”, “determined 1,” for “determined”, “plating.” for “treatment.”

p53 = p53 level in human fibroblasts, Western blot; type: cell-based; conditions: 48 hours, compared with diluent alone
Method: (§4) Human fibroblasts were treated with diluent (water or DMSO) alone, SPOX-1, SPOX-2, or 16mer T-oligo (SEQ ID NO: 2) for 48 hours after which total cellular proteins were harvested and Western blot analysis performed using anti-p53 and anti-p21 antibodies.

p21 = p21 level in human fibroblasts, Western blot; type: cell-based; conditions: 48 hours, compared with diluent alone
Method: as §4

Histone H2AX (γH2AX) [8] = test: γH2AX formation in human fibroblasts by immunofluorescent microscopy; type: cell-based; conditions: 48 hours
Method: Phosphorylation of Histone H2AX (forming γH2AX) is a marker for DNA damage in many settings and is also observed at telomeres when cells enter senescence. […] In both experiments, cells were incubated for 48 hours in the presence of SPOX-1 or 11mer T-oligo before processing for immunofluorescent microscopy.

[9] = tested on: WRN+ U20S human osteosarcoma cells; test: apoptosis of WRN+ U20S cells by FACS analysis; type: cell-based; conditions: 96 hours; 10 μM, 40 μM and 80 μM
Method: as §1

[10] = growth determined 3 days after plating
[11] = growth determined 8 days after plating

C=CCOC(=O)C1C2C(=O)OC(c3ccccc3)C(c3ccccc3)N2C(c2ccc(OCCO)cc2)C12C(=O)Nc1ccc(I)cc12 (centres unmarked) [SPOX-337]
induction of apoptosis ([1]; 72 hours): induced apoptosis with SPOX-337 and SPOX-343 having greatest effect
growth of MCF-7 cells (MCF-7 cells; [10]): inhibited growth of MCF-7 cells in a dose-dependent manner
growth of MCF-7 cells at highest concentration (MCF-7 cells): nearly complete inhibition of growth
growth arrest of malignant cells (MCF-7 cells): retain the capability of arresting the growth of malignant cells

16mer T-oligo (SEQ ID NO: 2): telomere homolog oligonucleotide, 16mer: 5′ GTTAGGGTTAGGGTTA 3′; SEQ ID NO: 2 (listed as DNA, further chemistry not given here) [reference compound]
induction of apoptosis in WRN− versus WRN+ U20S cells ([2]; 20 μM): less effective in inducing apoptosis in WRN− than in U20S cells with intact WRN

C=CCOC(=O)C1C2C(=O)OC(c3ccccc3)C(c3ccccc3)N2C(c2ccc(O)cc2)C12C(=O)Nc1ccccc12 (centres unmarked) [SPOX-343]
induction of apoptosis ([1]; 72 hours): induced apoptosis with SPOX-337 and SPOX-343 having greatest effect
growth of MCF-7 cells (MCF-7 cells; [10]): inhibited growth of MCF-7 cells in a dose-dependent manner
growth of MCF-7 cells at highest concentration (MCF-7 cells): nearly complete inhibition of growth
growth arrest of malignant cells (MCF-7 cells): retain the capability of arresting the growth of malignant cells

C=CCOC(=O)C1C2C(=O)OC(c3ccccc3)C(c3ccccc3)N2C(c2ccc(O)cc2)C12C(=O)Nc1ccc(I)cc12 (centres unmarked) [SPOX-2]
growth of human fibroblast cells (human fibroblasts): inhibited growth
induction of apoptosis ([1]; 96 hours): induced apoptosis
growth of MM-AN cells [3]: inhibited growth
phosphorylation of ATM at serine 1981 [4]: induce phosphorylation of ATM
growth of MCF-7 cells (MCF-7 cells; [11]): inhibited growth of MCF-7 cells in a dose-dependent manner
growth of MCF-7 cells at higher concentrations (MCF-7 cells): nearly complete inhibition of growth
phosphorylation of histone H2AX (γH2AX) (Histone H2AX (γH2AX) [5]): cause phosphorylation of the histone protein H2AX
PARP cleavage [6]: cause PARP cleavage
melanogenesis (tanning) in human skin (human skin explants): caused tanning, comparable to pTT
survivin expression at 80 μM (survivin): reduced survivin expression to nearly undetectable levels
survivin expression (survivin): dose-dependent reduction in survivin expression
survivin expression at 40 μM (survivin): nearly undetectable
growth of H460 cells [7]: inhibited growth
level of p53 (p53): induced the level of p53
level of p21 (p21): induced the level of the p53-dependent downstream effector protein p21 to a similar degree as 16mer T-oligo

C=CCOC(=O)C1C2C(=O)OC(c3ccccc3)C(c3ccccc3)N2C(c2ccc(OCCO)cc2)C12C(=O)Nc1ccccc12 (centres unmarked) [SPOX-338]
induction of apoptosis ([1]; 72 hours): induced apoptosis
growth of MCF-7 cells (MCF-7 cells; [10]): inhibited growth of MCF-7 cells in a dose-dependent manner
growth of MCF-7 cells at highest concentration (MCF-7 cells): nearly complete inhibition of growth
growth arrest of malignant cells (MCF-7 cells): retain the capability of arresting the growth of malignant cells

11mer T-oligo: telomere homolog oligonucleotide, 11mer: 5′ GTTAGGGTTAG 3′; SEQ ID NO: 1 (listed as DNA, further chemistry not given here) [reference compound]
γH2AX expression (Histone H2AX (γH2AX) [8]): induce γH2AX expression
phosphorylation of ATM at serine 1981 [4]: induce phosphorylation of ATM

C=CCOC(=O)C1C2C(=O)OC(c3ccccc3)C(c3ccccc3)N2C(c2ccc(O)cc2)C12C(=O)Nc1ccc(I)cc12 (centres unmarked) [SPOX-1]
γH2AX expression (Histone H2AX (γH2AX) [8]): induce γH2AX expression
growth of human fibroblast cells (human fibroblasts): inhibited growth
induction of apoptosis ([1]; 96 hours): induced apoptosis with SPOX-1 having a greater effect
growth of MM-AN cells [3]: inhibited growth
growth of MCF-7 cells (MCF-7 cells; [11]): inhibited growth of MCF-7 cells in a dose-dependent manner
growth of MCF-7 cells at higher concentrations (MCF-7 cells): nearly complete inhibition of growth
phosphorylation of histone H2AX (γH2AX) (Histone H2AX (γH2AX) [5]): cause phosphorylation of the histone protein H2AX
PARP cleavage [6]: cause PARP cleavage
induction of apoptosis in WRN+ U20S cells [9]: induced apoptosis in WRN+ U20S cells in a dose-dependent manner
induction of apoptosis in WRN− U20S cells ([2]; 40 μM and 80 μM): apoptosis was also seen
melanogenesis (tanning) in human skin (human skin explants): caused tanning, comparable to pTT
survivin expression at 80 μM (survivin): reduced survivin expression to nearly undetectable levels
survivin expression (survivin): dose-dependent reduction in survivin expression
survivin expression at 40 μM (survivin): nearly undetectable
growth of H460 cells [7]: inhibited growth
level of p53 (p53): induced the level of p53
level of p21 (p21): induced the level of the p53-dependent downstream effector protein p21 to a similar degree as 16mer T-oligo
